In brackets after ≈: the same amount, converted by molar mass.
Key:
E. faecium 50673722 = experiment: MIC, multi-resistant clinical isolate; assay type: cell-based, Enterococcus faecium
Experimental: (§1) Working solutions of the test derivatives were prepared with up to 100% DMSO and stored at −20° C. If necessary, the solutions were heated to 40-80° C. before testing to facilitate complete dissolution. Double-distilled water was used in all dilutions prepared. […] A microdilution susceptibility test was used for MIC determination according to Clinical and Laboratory Standards Institute, “Methods for Dilution Antimicrobial Sisceptibility Tests for Bacteria That Graw Aerobically”, Approved Standard M07-A9, edition 2012, with modifications as described by Igumnova et al (Bioorg Med Chem, 2016, 24 (22), 5884-5894).
(§2) Briefly, the bacterial inoculum was adjusted to approximately 2.5-3×10^4 cells/mL in Mueller-Hinton broth (MHB, Difco Laboratories, USA), and incubated in a ratio of 1:1 with test derivatives in polystyrene 96-well flat-bottom microplates (NUNC, Roskilde, Denmark). Positive growth control (without test derivatives) and negative control (without bacteria) were included. The reference antibiotic was oxytetracycline hydrochloride (Sigma Aldrich, Saint Louis, Mo., USA). The microplates were incubated in an EnVision microplate reader (Perkin-Elmer, Turku, Finland) placed in an incubator set to 35° C. for 48 h. The MIC value was defined as the lowest concentration of derivative resulting in no bacterial growth as determined by OD600 measurement. All derivatives were tested in three parallels.
(§3) The MIC was determined as explained above with some exceptions; working solutions of test derivatives were prepared from concentrated DMSO stocks stored at room temperature, the density of the bacterial inoculum was increased 40× to 1-1.2×10^6 cells/mL, enterococci were incubated in Brain Heart Infusion broth (BHIB, Difco Laboratories, USA), the microplates were incubated for 24 h, and the derivatives were tested in four parallels.

E. faecium 50758899 = experiment: MIC, multi-resistant clinical isolate; assay type: cell-based, Enterococcus faecium
Experimental: as §1, §2, §3

E. faecium TUH50-22 = experiment: MIC, multi-resistant clinical isolate; assay type: cell-based, Enterococcus faecium
Experimental: as §1, §2, §3

E. faecium 50901530 = experiment: MIC, multi-resistant clinical isolate; assay type: cell-based, Enterococcus faecium
Experimental: as §1, §2, §3

E. faecium K36-18 = experiment: MIC, multi-resistant clinical isolate; assay type: cell-based, Enterococcus faecium
Experimental: as §1, §2, §3

E. coli 50579417 = experiment: MIC, multi-resistant clinical isolate; assay type: cell-based, Escherichia coli
E. coli 50639799 = experiment: MIC, multi-resistant clinical isolate; assay type: cell-based, Escherichia coli
E. coli 50857972 = experiment: MIC, multi-resistant clinical isolate; assay type: cell-based, Escherichia coli
[1] = tested on: Pseudomonas aeruginosa PA01, DSM 19880 (ATCC 15692); experiment: MIC assay, antibiotic susceptible reference strain; assay type: cell-based; details: Pseudomonas aeruginosa, read-out: Antimicrobial activity (MIC) P. a
In short: (§4)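 Broth microdilution followed CLSI M07-A9 with modifications: inoculum ~2.5-3×10^4 cells/mL in Mueller-Hinton broth, mixed 1:1 with test derivative, incubated 48 h at 35 °C. MIC was the lowest concentration giving no growth by OD600, tested in three parallels, with oxytetracycline as reference antibiotic.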

[2] = tested on: Escherichia coli ATCC 25922; experiment: MIC assay, antibiotic susceptible reference strain; assay type: cell-based; details: Escherichia coli, ATCC25922, read-out: Antimicrobial activity (MIC) E. c
In short: as §4

[3] = tested on: Staphylococcus aureus ATCC 9144; experiment: MIC assay, antibiotic susceptible reference strain; assay type: cell-based; details: Staphylococcus aureus, ATCC9144, read-out: Antimicrobial activity (MIC) S. a
In short: as §4

[4] = tested on: Corynebacterium glutamicum ATCC 13032; experiment: MIC assay, antibiotic susceptible reference strain; assay type: cell-based; details: Corynebacterium glutamicum, ATCC13032, read-out: Antimicrobial activity (MIC) C. g
In short: as §4

[5] = tested on: antibiotic susceptible Gram-positive and Gram-negative reference strains; experiment: MIC assay, ranges over the reference strains; assay type: cell-based; details: reference strains, range; read-out: MIC values against the Gram-negative bacteria E. coli and P. aeruginosa
Experimental: as §1, §2

S. epidermidis = experiment: Anti-biofilm activity (inhibition of biofilm formation); assay type: cell-based; details: Staphylococcus epidermidis, read-out: Anti-biofilm IC50
K. pneumoniae K47-25 = experiment: MIC, multi-resistant clinical isolate; assay type: cell-based, Klebsiella pneumoniae; details: K. pneumoniae K47-25, resistant to colistin
Experimental: as §1, §2, §3

K. pneumoniae 50625602 = experiment: MIC, multi-resistant clinical isolate; assay type: cell-based, Klebsiella pneumoniae
Experimental: as §1, §2, §3

K. pneumoniae 50531633 = experiment: MIC, multi-resistant clinical isolate; assay type: cell-based, Klebsiella pneumoniae; details: K. pneumoniae 50531633, resistant to colistin
Experimental: as §1, §2, §3

[6] = Determination of haemolytic activity; assay type: cell-based; details: human red blood cells (washed, from heparinized fresh blood); human RBCs, 1 h, 37° C.; read-out: RBC: haemolytic activity against human RBCs (EC50)
Experimental: Hemolysis was determined using a heparinized fraction (1000 IU/mL) of freshly drawn blood. Blood collected in EDTA containing test tubes (Vacutest®, KIMA, Arzergrande, Italy) was used for determination of the hematocrit (hct). The heparinized blood was washed 3× with pre-warmed PBS and adjusted to a final hct of 4%. Derivatives in DMSO (50 mM) were added to a 96-well polypropylene V-bottom plate (NUNC, Fisher Scientific, Oslo, Norway) and serially diluted. The test concentration range was 500-4 μM with DMSO contents ≤1%. A solution of 1% triton X-100 was used as positive control for 100% hemolysis. As negative control a solution of 1% DMSO in PBS buffer was included. No signs of DMSO toxicity were detected. RBCs (1% v/v final concentration) were added to the well plate and incubated at 37° C. and 800 rpm for 1 h. After centrifugation (5 min, 3000 g), 100 μL of each well were transferred to a 96-well flat bottom plate and absorbance was measured at 545 nm with a microplate reader (VersaMax™, Molecular Devices, Sunnyvale, Calif., USA). The percentage of hemolysis was calculated as the ratio of the absorbance in the derivative-treated and surfactant treated samples, corrected for the PBS background. Three independent experiments were performed and EC50 values are presented as averages.

[7] = Enterococcus faecium, read-out: Antimicrobial activity (MIC)
[8] = Escherichia coli, read-out: Antimicrobial activity (MIC)

In the case of `CC(C)(C)c1ccc(CC2(Cc3ccc(C(C)(C)C)cc3)C(=O)N(CCCCNC(=N)N)C(=O)N(CCCCNC(=N)N)C2=O)cc1` [Compound 8(i), 1,1′-(4,4′-(5,5-bis(4-tert-butylbenzyl)-2,4,6-trioxodihydropyrimidine-1,3(2H,4H)-diyl)bis(butane-4,1-diyl))diguanidine], the MIC (E. faecium 50673722; [7]) is reported as 2 µg/mL (≈ 3.09 µM), the “selectivity index (EC50/MIC)” value (E. faecium 50673722; RBC EC50 / MIC) is reported as “(39)” and the MIC (E. faecium 50758899; [7]) is reported as 2 µg/mL (≈ 3.09 µM). For the same compound, the “selectivity index (EC50/MIC)” value (E. faecium 50758899; RBC EC50 / MIC) was “(39)”, the MIC (E. faecium TUH50-22; Enterococcus faecium, TUH5022, read-out: Antimicrobial activity (MIC)) was 2 µg/mL (≈ 3.09 µM) and the “selectivity index (EC50/MIC)” value (E. faecium TUH50-22; RBC EC50 / MIC) was “(39)”. The MIC (E. faecium 50901530; [7]) was 4 µg/mL (≈ 6.18 µM), the “selectivity index (EC50/MIC)” value (E. faecium 50901530; RBC EC50 / MIC) was “(19)” and the MIC (E. faecium K36-18; Enterococcus faecium, K3618, read-out: Antimicrobial activity (MIC)) was 2 µg/mL (≈ 3.09 µM). The “selectivity index (EC50/MIC)” value (E. faecium K36-18; RBC EC50 / MIC, E. faecium K36-18) was “(39)”, the MIC (E. coli 50579417; [8]) was 4 µg/mL (≈ 6.18 µM) and the “selectivity index (EC50/MIC)” value (E. coli 50579417; RBC EC50 / MIC) was “(19)”. For the same compound, the MIC (E. coli 50639799; [8]) was 4 µg/mL (≈ 6.18 µM), the “selectivity index (EC50/MIC)” value (E. coli 50639799; RBC EC50 / MIC) was “(19)” and the MIC (E. coli 50857972; [8]) was 4 µg/mL (≈ 6.18 µM). The “selectivity index (EC50/MIC)” value (E. coli 50857972; RBC EC50 / MIC) was “(19)”, the MIC [1] was 4 µg/mL (≈ 6.18 µM) and the MIC [2] was 2 µg/mL (≈ 3.09 µM). For the same compound, the MIC [3] was 1 µg/mL (≈ 1.55 µM), the MIC [4] was < 0.13 µg/mL and the MIC [5] was 1 to 4 µg/mL (≈ 1.55 to 6.18 µM). For the same compound, the IC50 (S. epidermidis) was 1 µg/mL (≈ 1.55 µM), the MIC (K. pneumoniae K47-25; Klebsiella pneumoniae, K4725, 24 h, read-out: Antimicrobial activity (MIC)) was 4 µg/mL (≈ 6.18 µM) and the “selectivity index (EC50/MIC)” value (K. pneumoniae K47-25; RBC EC50 / MIC) was “(19)”. The MIC (K. pneumoniae 50625602; Klebsiella pneumoniae, read-out: Antimicrobial activity (MIC)) was 4 µg/mL (≈ 6.18 µM), the “selectivity index (EC50/MIC)” value (K. pneumoniae 50625602; RBC EC50 / MIC) was “(19)” and the MIC (K. pneumoniae 50531633; Klebsiella pneumoniae, 24 h, read-out: Antimicrobial activity (MIC)) was 4 µg/mL (≈ 6.18 µM). The “selectivity index (EC50/MIC)” value (K. pneumoniae 50531633; RBC EC50 / MIC) was “(19)” and the EC50 at 1 h [6] was 77 µg/mL (≈ 119 µM).

— US11072588B2, “Barbituric acid derivatives comprising cationic and lipophilic groups” (UNIVERSITETET I TROMSØ—NORGES ARKTISKE UNIVERSITET, priority 2017, dated 2021)
